Reference: patent US6972319B1, “Pituitary adenylate cyclase activating peptide (PACAP)receptor 3 (R3) agonists and their pharmacological methods of use” (priority 1999, dated 2005)
No end group written: not given here.

What was measured:
PACAP-R3 [1] = target: T1, PACAP-R3 (Homo sapiens, UniProt P41587); conditions: literature (Gourlet et al., Xia et al.); b170: over R1 and R2; cited from earlier work
T1 sequence (P41587 24-438): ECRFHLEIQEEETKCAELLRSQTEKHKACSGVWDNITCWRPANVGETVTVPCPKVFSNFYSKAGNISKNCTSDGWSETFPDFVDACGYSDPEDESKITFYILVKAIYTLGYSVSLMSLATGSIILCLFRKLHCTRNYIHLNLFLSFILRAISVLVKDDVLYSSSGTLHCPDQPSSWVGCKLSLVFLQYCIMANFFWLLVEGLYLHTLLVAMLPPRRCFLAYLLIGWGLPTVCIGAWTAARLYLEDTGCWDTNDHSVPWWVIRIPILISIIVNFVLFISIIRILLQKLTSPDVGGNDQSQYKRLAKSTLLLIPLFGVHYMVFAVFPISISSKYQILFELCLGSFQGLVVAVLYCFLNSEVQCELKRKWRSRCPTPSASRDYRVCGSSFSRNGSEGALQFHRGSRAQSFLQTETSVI

[2] = Airway hyperresponsiveness in the primate acute asthma model; format: in vivo, cynomolgus monkeys (Macaca fascicularls); conditions: for Delta log10 PC100, Mean, Treated: aerosol 10 minutes before Ascaris suum antigen challenge, +24 hr minus baseline, R3P0 0.6, R3P76 3.0, R3P82 1.8 ug/kg; for % Inhibition of induced AHR: treated vs control, R3P0 0.6, R3P76 3.0, R3P82 1.8 ug/kg by inhalation
Method: Male cynomolgus monkeys (Macaca fascicularls) used in this study were maintained at constant temperature and humidity with a twelve hour light cycle. They were fed twice daily, except on an experimental day when food was withheld the night before the procedure. Water was available ad lib at all times.
Airway hyperresponsiveness (AHR)(baseline) was measured 1 week before the control (no treatment) antigen challenge, and again 24 hrs after antigen challenge. Antigen-induced airway hyperresponsiveness was measured by a fall in the PC100 (the concentration of methacholine required to cause a 100% increase in lung resistance) at 24 hr compared to baseline. After 2 weeks rest, another baseline measurement of AHR was performed. One week later, peptides of this invention were administered as an aerosol, 10 minutes before antigen challenge. After 24 hrs, AHR was again measured, and the fall in PC100 with treatment was compared to that without treatment.
Experimental Procedure. On each experimental day animals were anaesthetized with a ketamine/xylazine mixture (70:12 mg kg^−1 @ 0.1 ml kg^−1) while still in their cage. When unconscious they were brought into the primate laboratory where they were placed in a supine position on a heated water blanket on a trolley. Ophthalmic ointment was wiped onto each eye, and 0.2 ml lidocaine (2%,) sprayed onto the larynx and over the back of the throat. The Jaws were held apart by a jaw spreader and a cuffed 5.0 gauge endotracheal tube (with the end liberally smeared with xylocaine gel, 2%) was inserted with the aid of laryngoscope. The animal was then placed into a specially designed restraint chair such that the animal was in a slightly reclined but upright sitting position, secured only by a collar at the neck. A water-heated blanket surrounded the animal.
The endotracheal tube was connected to a Harvard Ventilator adjusted to deliver 30-35 breaths per minute. Airflow was measured by a Fleisch pneumotachograph and thoracic pressure was measured by a validyne pressure transducer (as the difference between the pressure at the distal end of the et tube and room pressure).
The pneumotachograph and validyne were connected to a pre-amplifier and then into an MI^2 respiratory analyser. […]
Antigen challenge: This was an inhalation challenge with Ascaris suum. […] 30 breaths of antigen were administered after which the acute bronchoconstriction was monitored for 15 min. […]
Methacholine challenge: Methacholine dose response curves were carried out to assess the airway hyperresponsiveness. In the acute model, this was measured at +24 hour and compared to the responsiveness 7 days before treatment. […] The aerosol was administered for 15 breaths and then lung resistance was monitored for ten minutes. […]

PACAP-R3 [3] = target: T1, PACAP-R3; experiment: Cyclic AMP SPA on CHO cells expressing PACAP R3; format: cell-based; parameters: expressed in transfected cells; host or cells: CHO cells (Geneticin selection)
Method in brief: (§1)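 Transfected CHO cells grown 24 h were exposed to peptide for 15 min at 37 C in Hepes-PBS-BSA containing 100 uM IBMX, 0.4 mg/ml soybean trypsin inhibitor and 0.5 mg/ml bacitracin. Cellular cAMP was measured by scintillation proximity assay. EC50 is the peptide concentration giving 50% of maximal PACAP27 activity.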

PACAP-R2 = target: T2, PACAP-R2 (Homo sapiens, UniProt P32241); experiment: Cyclic AMP SPA on CHO cells transfected with PACAP-R2; format: cell-based; conditions: cAMP SPA, concentration at which 50% of maximum PACAP27 activity is achieved, NA = no detectable activities, read-out: R2 EC50
T2 construct: expressed in transfected cells; host or cells: CHO cells
T2 sequence (P32241 31-457): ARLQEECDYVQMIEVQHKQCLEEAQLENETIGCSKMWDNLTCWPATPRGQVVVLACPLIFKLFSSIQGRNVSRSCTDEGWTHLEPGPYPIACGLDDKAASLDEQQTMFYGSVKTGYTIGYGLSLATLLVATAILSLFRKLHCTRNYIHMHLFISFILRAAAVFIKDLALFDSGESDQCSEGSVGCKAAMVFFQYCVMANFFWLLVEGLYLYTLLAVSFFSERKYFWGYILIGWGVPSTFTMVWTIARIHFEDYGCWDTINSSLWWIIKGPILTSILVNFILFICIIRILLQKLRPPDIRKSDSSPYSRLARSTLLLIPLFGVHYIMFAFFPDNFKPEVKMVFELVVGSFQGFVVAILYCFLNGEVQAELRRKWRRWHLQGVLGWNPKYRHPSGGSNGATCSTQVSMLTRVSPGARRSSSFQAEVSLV
Method in brief: as §1

Compound | PACAP-R3 selectivity (PACAP-R3 [1]) [fold] | Delta log10 PC100, Mean, Treated [2] | % Inhibition of induced AHR [2] [%] | EC50 (PACAP-R3 [3]; cAMP SPA, CHO cells transfected with PACAP-R3, concentration at which 50% of maximum PACAP27 activity is achieved, NA = no detectable activities, read-out: R3 EC50) [nM] | R3 Selectivity (PACAP-R3 [3]; ratio of EC50 at R2 versus EC50 at R3) | EC50 (PACAP-R2) [nM]
Helodermin | ~100 | – | – | – | – | –
HSDAVFTDNYTRLRKQVAVKKYLQSIKNKRY [Peptide R3P82] | – | −0.067 | 88 | 0.4 | 23 | 10
CC[C@H](C)[C@H](NC(=O)[C@@H](NC(=O)[C@H](CC(N)=O)NC(=O)[C@H](CC(C)C)NC(=O)[C@H](Cc1ccc(O)cc1)NC(=O)[C@H](Cc1c[nH]cn1)NC(=O)[C@H](CCCCN)NC(=O)[C@H](C)NC(=O)[C@H](C)NC(=O)[C@H](CC(C)C)NC(=O)[C@H](CCC(N)=O)NC(=O)[C@H](CCCCN)NC(=O)[C@H](CCCNC(=N)N)NC(=O)[C@H](CC(C)C)NC(=O)[C@H](CCCNC(=N)N)NC(=O)[C@@H](NC(=O)[C@H](Cc1ccc(O)cc1)NC(=O)[C@H](CCC(N)=O)NC(=O)[C@H](CC(=O)O)NC(=O)[C@@H](NC(=O)[C@H](Cc1ccccc1)NC(=O)[C@@H](NC(=O)[C@H](C)NC(=O)[C@H](CC(=O)O)NC(=O)[C@H](CO)NC(=O)[C@@H](N)Cc1c[nH]cn1)C(C)C)[C@@H](C)O)[C@@H](C)O)[C@@H](C)O)C(=O)N[C@@H](CCCCN)C(=O)N[C@@H](CC(N)=O)C(=O)N[C@@H](CCCCN)C(=O)N[C@@H](CCCNC(=N)N)C(=O)N[C@@H](Cc1ccc(O)cc1)C(=O)O [Peptide R3P76] | – | +0.047 | 100 | – | – | > 150
